Experiment [1] concerns purified cellobiase from Aspergillus terreus (ATCC 20514). The experiment in a line: Km of purified cellobiase for cellobiose. As to conditions: substrate cellobiose. It counts as biochemical. The method, then:
The activity on cellobiose was determined by two different methods. In the first method 0.4 ml of the substrate, 12.5 mM cellobiose in 0.0625M sodium citrate buffer (pH 4.8), was preheated to 50° C., then 0.1 ml of the preheated enzyme solution was added to the substrate and the tubes stoppered. Each sample was incubated for 1.5 minutes placed in a boiling water bath for 30 seconds and then immediately cooled in an ice bath. This reaction mixture was added to 5 ml of the glucose oxidase reagent from a glucose assay kit (Sigma Chemical Co.) and the amount of glucose produced from cellobiose hydrolysis was determined spectrophometrically.
In the second method the amount of glucose produced was measured on a high pressure liquid chromatograph. The cellobiose substrate consisted of 0.03M cellobiose in 0.075M sodium citrate buffer (pH 4.8). The substrate and enzyme solution was preheated to 50° C., then 0.25 ml of the enzyme solution was added to 0.5 ml of the substrate and incubated for 10 minutes. […]
Using cellobiose as the substrate, the purified cellobiase enzyme from Aspergillus terreus was capable of producing 215 micromoles of glucose from cellobiose per minute per milligram of enzyme protein. […] The specific activity of our purified cellobiase is expressed as 215 units per mg protein. […]

Experiment [2] relates to cellobiase from Aspergillus phoenicis. As to conditions: Table 3; substrate cellobiose; as reported in the literature; cited from earlier work.
Experiment [3] relates to cellobiase from Trichoderma reesei. As to conditions: Table 3; substrate cellobiose; as reported in the literature; cited from earlier work.
The target of experiment [4] is purified cellobiase from Aspergillus terreus (ATCC 20514). The experiment in a line: Glucose inhibition of purified cellobiase, PNPG as substrate. In kind it is biochemical. The method, then: The β-glucosidase activity was routinely determined using p-nitrophenyl-β-D-glucoside (PNPG) as the substrate. Two milliliters of a 10 mM PNPG solution in 0.05M sodium citrate buffer solution (pH 4.8) were heated to 50° C. Then […] of the enzyme solution was added to the substrate and incubated for 15 minutes. After incubation, 3 ml of 1.0M aqueous sodium carbonate solution were added to stop the reaction and develop the color. The absorbance was read at 400 nm and the amount of p-nitrophenol liberated was determined from a standard curve. The time of incubation varied depending on the activity of the enzyme preparation tested. A unit (IU) of activity was defined as the amount of enzyme required to liberate one micromole of p-nitrophenol per minute from the substrate.
Glucose is a competitive inhibitor of the cellobiase enzyme from Aspergillus terreus. […] The Ki is the concentration of inhibitor required to slow the reaction down to one-half its maximum velocity, therefore, the larger the Ki the less inhibitory the inhibitor is.

The target in experiment [5] is T1, cellobiase from Alcaligenes faecalis (Agrobacterium sp., UniProt P12614).
T1 sequence (P12614 1-459): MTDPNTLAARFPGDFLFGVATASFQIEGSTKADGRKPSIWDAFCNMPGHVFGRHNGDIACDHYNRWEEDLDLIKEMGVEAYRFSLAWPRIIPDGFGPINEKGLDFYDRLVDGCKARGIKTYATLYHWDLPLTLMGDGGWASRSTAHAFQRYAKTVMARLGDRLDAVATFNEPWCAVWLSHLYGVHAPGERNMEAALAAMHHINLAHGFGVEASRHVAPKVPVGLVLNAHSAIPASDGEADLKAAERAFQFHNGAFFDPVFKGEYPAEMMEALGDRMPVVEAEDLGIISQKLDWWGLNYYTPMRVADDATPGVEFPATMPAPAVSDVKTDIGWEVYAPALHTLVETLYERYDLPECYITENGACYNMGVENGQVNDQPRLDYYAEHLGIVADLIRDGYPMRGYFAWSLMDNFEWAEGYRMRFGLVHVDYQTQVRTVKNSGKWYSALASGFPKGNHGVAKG
As to conditions: read-out: Ki (molar); Table 4; inhibitor glucose; type of inhibition competitive; reference (1) Ivanova et al 1980; cited from earlier work.

The target in experiment [6] is cellobiase from Lenzites trabes. The note with it: Table 4; inhibitor glucose; type of inhibition noncompetitive; reference (2) Herr et al 1978; cited from earlier work.
For experiment [7], the target named is cellobiase from Phanerochaete chrysosporium. As to conditions: Table 4; inhibitor glucose; type of inhibition competitive; reference (3) Smith and Gold 1979; cited from earlier work.

Read-outs that look alike come from different tables or passages of the source.

As for `OC[C@H]1O[C@@H](O[C@H]2[C@H](O)[C@@H](O)C(O)O[C@@H]2CO)[C@H](O)[C@@H](O)[C@@H]1O` (stereo partly drawn) [cellobiose], the Michaelis-Menten constant (Km) is 400 µM in experiment [1] (Table 3, read-out: Km); 400 µM in experiment [1] (purified enzyme, pH 4.8, 50° C., read-out: affinity (Km) for cellobiose); 750 µM in experiment [2]; 3300 µM in experiment [3].
Take `OC[C@H]1OC(O)[C@H](O)[C@@H](O)[C@@H]1O` (stereo partly drawn) [glucose]: the inhibitory constant (Ki) is 3.5 mM in experiment [4] (Table 4, inhibitor glucose, type of inhibition competitive, read-out: Ki); 3.5 mM in experiment [4] (competitive inhibitor, p-nitrophenyl-β-D-glucoside as substrate, read-out: Ki dissociation constant for glucose); 3 mM in experiment [5]; 2.7 mM in experiment [6]; 0.5 mM in experiment [7].

As a reminder, the Km is the substrate concentration at which the rate is half of its maximum. A word on the Ki: it is a dissociation constant, usually derived from enzyme kinetics or from competition with a known ligand.

These data come from patent publication US4487831A, “Process for the conversion of cellulose to glucose” (Research Corporation, priority 1982, dated 1984).
